{"source": "patent US11324706B2", "about": "“Composition for inhibiting growth of breast cancer stem cells containing phenylacetaldehyde” (JEJU NATIONAL UNIVERSITY INDUSTRY-ACADEMIC COOPERATION …, priority 2016, dated 2022)", "key": {"[1]": {"system": "CD44high/CD24low cell populations of MDA-MB-231 cells", "test": "Flow cytometric analysis of CD44 and CD24 expression", "format": "cell-based, human", "settings": "MDA-MB-231, PAA 0.1 mM", "experimental": "For FACS analysis, 50,000 cells were obtained. Gating was based on control antibody;\nExpression of CD44 and CD24 in MDA-MB-231 cells was measured by FACS analysis. The cells were isolated and harvested using 1× trypsin/EDTA, and a million of cells were suspended, labelled with FITC-conjugated anti-human CD44 and PE-conjugated anti-human CD24 antibodies (BD Pharmingen, San Diego, Calif., USA) and cultured at 4° C. for 30 minutes. Then, the cells were washed with 1×PBS three times and analyzed by flow cytometry (Accuri C6, BD, San Diego, Calif., USA)."}, "[2]": {"system": "ALDH-positive cell populations of MDA-MB-231 cells", "test": "ALDEFLUOR assay", "format": "cell-based, human", "settings": "MDA-MB-231, PAA 0.1 mM", "experimental": "MDA-MB-231 cells were treated with PAA (0.1 mM) or DMSO, and then subjected to ALDEFLUOR assay and FACS analysis. A top panel represents, as a negative control group, an ALDH-positive cell treated with an ALDH inhibitor, DEAB, and a bottom panel represents an ALDH-positive cell not treated with DEAB. An ALDH-positive population was represented by a box;\nAn ALDEFLUOR assay system provides a novel approach regarding identification, evaluation and separation of CSCs based on activity of aldehyde dehydrogenase (ALDH). BODIPY-aminoacetaldehyde was added as an active reagent to breast cancer cells and converted into fluorescent BODIPY-aminoacetate by aldehyde dehydrogenase (ALDH). An ALDH inhibitor, i.e., diethylaminobenzaldehyde (DEAB), was used as a negative control group. MCF-7 cells were treated with 200 μM of PAA for 24 hours, and the rate of ALDH-positive cells was analyzed by ALDEFLUOR assay. ALDH positive and negative cells were classified by flow cytometry (Accuri C6, BD, San Diego, Calif., USA)."}, "[3]": {"system": "MDA-MB-231 cells", "test": "Analysis of apoptosis by fluorescent staining (Hoechst 33258)", "format": "cell-based, human", "settings": "MDA-MB-231, Hoechst 33258 staining", "experimental": "(FIGS. 1D, E and F) show effects of PAA on apoptosis of breast cancer cells. MDA-MB-231 cells were treated with PAA for 24 hours, and apoptotic cells were analyzed by FACS using an Annexin V-PI staining kit. Caspase 3/7 activity in MDA-MB-231 cells was analyzed using a Caspase-Gloss 3/7 kit. By fluorescent staining, apoptotic cells were analyzed and nuclei thereof were stained with Hoechst 33258 in breast cancers (magnified, 200×) (FIG. 1);\nMDA-MB-231 cells were treated with 200 μm of PAA for 24 hours and were cultured in a Hoechst 33258 solution (10 mg/mL) at 37° C. for 30 minutes."}, "[4]": {"system": "ROSs in MDA-MB-231 cells", "test": "Measurement of ROS activity (ROS-Glo H2O2 assay)", "format": "cell-based, human", "experimental": "ROSs in cells were analyzed using a ROS-Glo™ H2O2 assay kit. PAA induced ROS production of breast cancers;\nCancer cells were cultured on a 96-well white plate and cultured together with PAA (0.5 mM) or DMSO for 24 hours. In accordance with the manufacturer's instructions, ROS was measured using an ROS-Glo™ H2O2 detection solution (Promega, Wis., USA). 100 μl of the ROS-Glo™ H2O2 detection solution was added to a 96-well white plate containing breast cancer cells, cultured at room temperature for 20 minutes, and relative luminance was recorded using a plate reader, luminometer, GloMax® Explorer (Promega, Wis., USA)."}, "[5]": {"target": "T1, Stat3 / biotin-labelled Stat probe (Homo sapiens, UniProt P40763)", "T1 construct": "EMSA (electrophoretic mobility-shift assay) of PAA-treated MDA-MB-231 cell-derived mammosphere nuclear lysates; endogenous in cells; host or cells: MDA-MB-231 cell-derived mammospheres (nuclear lysate)", "T1 sequence (P40763 2-770 limits assumed)": "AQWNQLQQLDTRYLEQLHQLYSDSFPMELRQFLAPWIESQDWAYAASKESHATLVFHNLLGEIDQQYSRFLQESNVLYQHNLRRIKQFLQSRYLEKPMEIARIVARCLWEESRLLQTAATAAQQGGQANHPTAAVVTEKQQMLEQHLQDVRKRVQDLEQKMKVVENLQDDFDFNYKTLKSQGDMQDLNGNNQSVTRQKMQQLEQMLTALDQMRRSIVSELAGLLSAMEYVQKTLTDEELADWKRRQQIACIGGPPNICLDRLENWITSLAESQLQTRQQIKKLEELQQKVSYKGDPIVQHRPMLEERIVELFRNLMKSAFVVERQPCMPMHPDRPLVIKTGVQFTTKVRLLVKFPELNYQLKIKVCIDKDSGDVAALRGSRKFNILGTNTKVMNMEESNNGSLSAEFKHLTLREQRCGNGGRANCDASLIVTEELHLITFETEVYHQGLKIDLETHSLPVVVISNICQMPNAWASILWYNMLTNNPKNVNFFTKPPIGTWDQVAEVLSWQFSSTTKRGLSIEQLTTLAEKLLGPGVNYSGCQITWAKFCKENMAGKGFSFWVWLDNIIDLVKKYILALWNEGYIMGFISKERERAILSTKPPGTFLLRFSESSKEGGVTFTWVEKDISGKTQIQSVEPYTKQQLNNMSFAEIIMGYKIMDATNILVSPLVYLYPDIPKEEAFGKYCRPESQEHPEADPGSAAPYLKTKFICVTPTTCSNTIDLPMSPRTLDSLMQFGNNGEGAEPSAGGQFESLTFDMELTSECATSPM", "test": "Electrophoretic mobility shift assay (EMSA) with Stat3 probe", "format": "cell-based", "settings": "PAA-treated mammosphere nuclear extracts", "experimental": "Nuclear lysates were cultured in biotin-labeled Stat3 probes and were isolated by 6% PAGE;\nLane 1: probe alone; Lane 2: probe+nuclear extracts; Lane 3: probe+PAA-treated nuclear extracts; Lane 4: self-competition; Lane 5: nuclear extracts cultured together with mutant STAT3 probe. The PAA reduced DNA/STAT3 interactions in mammosphere nuclear lysates;\nIn accordance with the manufacturer's instructions, EMSAs were detected using a chemiluminescent EMSA kit (Thermoscientific, IL, USA) commercially available from Lightshift. Biotin-top and bottom probe parts (5′-[…]-Biotin3′, SEQ NO. 11 and 5′-[…]-Biotin3′, SEQ NO. 12) of Stat3 probe were annealed and the double-stranded oligonucleotide was end-labelled with biotin.\nBiotin-labelled DNA probes were cultured together with PAA-treated nuclear proteins in a total volume of 20 μl of EMSA buffer containing 1 μg/μl poly[dI-dC]) for 20 minutes at room temperature. The reaction mixture was subjected to electrophoresis on 4% polyacrylamide nondenaturing gel at 4° C. in the presence of 0.5×TBE (45 mM Tris borate and 1 mM EDTA) and visualized using a chemiluminescence nucleic acid detection kit (Thermoscientific, IL, USA).\nIn addition, bonding between PAA-treated nuclear extracts and Stat3 DNAs was analyzed using a biotin-labelled Stat-conjugated probe that bonds to STAT3 at a high affinity. […]"}}}
{"compound": "O=CCc1ccccc1", "note": "[PAA, phenylacetaldehyde]", "values": [{"measurement": "subpopulation expressing CD44high/CD24low in breast cancer cells", "setting": "[1]", "value": "reduced"}, {"measurement": "proportion of ALDH-positive breast cancer cells", "setting": "[2]", "value": 0.1, "unit": "%"}, {"measurement": "formation of apoptotic bodies", "setting": "[3]", "value": "apoptotic bodies were formed"}, {"measurement": "ROS activity", "setting": "[4]", "value": "induced"}, {"measurement": "bonding between biotin-labelled Stat probe and Stat3", "setting": "[5]", "value": "inhibited"}]}
